Calls of active or inactive are those of the source. No cut-off for these calls is given here.

Data set [1] relates to Human immunodeficiency virus 1. The data set can be described thus: Antiviral activity against HIV1 NL4-3 infected in human MT4 cells assessed as reduction in virus-induced cell death by MTT assay. It counts as functional, organism-based. The settings on record: Human immunodeficiency virus 1, NL4-3, MT4. In general terms: Tetrazolium dyes change colour on reduction, which living cells bring about.

Data set [2] relates to Human immunodeficiency virus 1. In kind it is functional, organism-based. The settings on record: Human immunodeficiency virus 1, NL4-3, MT4.
For data set [3], the system named is Human immunodeficiency virus 1. It counts as functional, organism-based. The settings on record: Human immunodeficiency virus 1, NL4-3, MT4. This is another data set of the same source.
Data set [4] concerns Human immunodeficiency virus 1. It counts as functional, organism-based. The settings on record: Human immunodeficiency virus 1, NL4-3, MT4. The source holds these as a separate data set.
The target of data set [5] is T1, Human immunodeficiency virus type 1 reverse transcriptase (Human immunodeficiency virus 1, UniProt Q72547).
The target of data set [6] is Human immunodeficiency virus type 1 reverse transcriptase (Human immunodeficiency virus 1, UniProt Q72547, V106A). The data set can be described thus: Inhibition of […] HIV1 reverse transcriptase V106A mutant assessed as reduction in enzyme activity.
Data set [7] relates to Human immunodeficiency virus 1. The data set can be described thus: Antiviral activity against HIV1 Clade A (UG273) infected in human PBMC assessed as reduction in p24 antigen production. It counts as functional, organism-based. The settings on record: Human immunodeficiency virus 1, Clade A (UG273).
The test system of data set [8] is Human immunodeficiency virus 1. As to the kind of experiment: Antiviral activity against HIV1 Clade B (BaL) infected in human PBMC assessed as reduction in p24 antigen production. It counts as functional, organism-based. The settings on record: Human immunodeficiency virus 1, Clade B (BaL).
For data set [9], the system named is Human immunodeficiency virus 1. As to the kind of experiment: Antiviral activity against HIV1 Clade C (DJ259) infected in human PBMC assessed as reduction in p24 antigen production. It counts as functional, organism-based. To be noted: Human immunodeficiency virus 1, Clade C (DJ259).
The subject of data set [10] is Human immunodeficiency virus 1. The data set can be described thus: Antiviral activity against HIV1 Clade D (UG270) infected in human PBMC assessed as reduction in p24 antigen production. In kind it is functional, organism-based. The settings on record: Human immunodeficiency virus 1, Clade D (UG270).
For data set [11], the system named is Human immunodeficiency virus 1. As to the kind of experiment: Antiviral activity against HIV1 Clade A/E (ID12) infected in human PBMC assessed as reduction in p24 antigen production. In kind it is functional, organism-based. To be noted: Human immunodeficiency virus 1, Clade A/E (ID12).
Data set [12] deals with Human immunodeficiency virus 1. As to the kind of experiment: Antiviral activity against HIV1 Clade F (BZ162) infected in human PBMC assessed as reduction in p24 antigen production. It counts as functional, organism-based. The settings on record: Human immunodeficiency virus 1, Clade F (BZ162).
Data set [13] deals with Human immunodeficiency virus 1. As to the kind of experiment: Antiviral activity against HIV1 Clade G (HH8793) infected in human PBMC assessed as reduction in p24 antigen production. It counts as functional, organism-based. The settings on record: Human immunodeficiency virus 1, Clade G (HH8793).
Data set [14] concerns Human immunodeficiency virus 2. The data set can be described thus: Antiviral activity against HIV2 ROD infected in human PBMC cells assessed as reduction in p24 antigen production. To be noted: ISOLATE ROD. It counts as functional, organism-based.
The test system of another data set is Plasma. The data set can be described thus: Stability in human plasma assessed as compound hydrolysis after 24 hrs. In kind it is ADME, cell-free.
Data set [15] can be described thus: Permeability by PAMPA method. It counts as ADME.
A short description of data set [16]: Drug retention assessed as membrane retention by PAMPA method. In kind it is physicochemical. (In general: The PAMPA barrier holds no transporters, so it reflects passive diffusion.)
Data set [17] can be described thus: Stability in human plasma assessed as remaining unmodified parent compound level after 24 hrs. In kind it is ADME, cell-free. The settings on record: read-out: Stability.
The target in data set [18] is T1, Human immunodeficiency virus type 1 reverse transcriptase. The source holds these as a separate data set.
Description: Inhibition of wild type HIV1 reverse transcriptase assessed as reduction in enzyme activity
Data set [19] concerns the target Human immunodeficiency virus type 1 reverse transcriptase (Human immunodeficiency virus 1, UniProt Q72547, K103N).
Description: Inhibition of wild type HIV1 reverse transcriptase K103N mutant assessed as reduction in enzyme activity
Data set [20] deals with Human immunodeficiency virus type 1 reverse transcriptase (Human immunodeficiency virus 1, UniProt Q72547, L100I).
Description: Inhibition of wild type HIV1 reverse transcriptase L100I mutant assessed as reduction in enzyme activity
A short description of data set [21]: Cytotoxic activity against human MT4 cells by MTT assay. It counts as cell-based.
Data set [22] concerns Human immunodeficiency virus 1. As to the kind of experiment: Antiviral activity against HIV1 3B infected in human CEM cells assessed as protection against virus-induced cytopathicity by giant cell formation assay. It counts as functional, organism-based. The settings on record: Human immunodeficiency virus 1, 3B, CCRF-CEM. On the technique in general: Protection from cytopathic effect is a common read-out in antiviral testing.

The test system of data set [23] is Human immunodeficiency virus 2. As to the kind of experiment: Antiviral activity against HIV2 ROD infected in human CEM cells assessed as protection against virus-induced cytopathicity by giant cell formation assay. In kind it is functional, organism-based. To be noted: Human immunodeficiency virus 2, ISOLATE ROD, CCRF-CEM.
Data set [24] concerns Human immunodeficiency virus 1. The data set can be described thus: Antiviral activity against HIV1 NL4-3 expressing reverse transcriptase K103N mutant infected in human MT4 cells assessed as reduction in virus-induced cell death by MTT assay. It counts as functional, organism-based. The settings on record: Human immunodeficiency virus 1, NL4-3, MT4.
The test system of data set [25] is Human immunodeficiency virus 1. As to the kind of experiment: Antiviral activity against HIV1 NL4-3 expressing reverse transcriptase L100I mutant infected in human MT4 cells assessed as reduction in virus-induced cell death by MTT assay. It counts as functional, organism-based. The settings on record: Human immunodeficiency virus 1, NL4-3, MT4.
The target of data set [26] is Human immunodeficiency virus type 1 reverse transcriptase (Human immunodeficiency virus 1, UniProt Q72547, Y181I).
The nature of another data set: in vitro. The settings on record: human, MT4 cells.

Description for in vitro: Selectivity index, ratio of CC50 for human MT4 cells to EC50 for HIV1 NL4-3 infected in human MT4 cells

By EC50 is commonly meant the concentration at which the effect is half-maximal. One may read the IC50 as the concentration at which inhibition is half-maximal. The term Papp denotes the rate of passage across a membrane or cell layer, normalised by area and donor concentration. Regarding `Cc1cc(C)cc(S(=O)(=O)c2c(C(=O)N[C@H](C)c3ccncc3)[nH]c3ccc(Cl)cc23)c1`, the EC50 in data set [1] is 0.2 nM; in data set [2] it was 2.1 nM; in data set [3], 933 nM; in [4], 150 nM; in [7], 3.4 nM; in [8], 2.1 nM. Also, the concentration for a half-maximal effect (EC50) in [9] stood at 0.7 nM; in data set [10] it was 1.8 nM; in data set [11] it was 1.2 nM; in data set [12], 1.6 nM; in [13], 1.7 nM. Besides, the IC50 in [5] turned out to be 2230 nM; in data set [6], 26 nM; in [18], 18 nM; in [19], 50 nM; in [20] it was 3 nM. Besides, the result in data set [14] was inactive. Besides, in the data set with Plasma, the Stability result was “Stable”. The same compound registered a Papp in data set [15] of 12.4 ×10⁻⁶ cm/s. Moreover, the Drug uptake in [16] came to 0%. Moreover, the remaining at 24 h in [17] stood at 99%.

As usually defined, the CC50 is the concentration giving 50% cytotoxicity. For `Cc1cc(C)cc(S(=O)(=O)c2c(C(=O)NC(C)c3ccncc3)[nH]c3ccc(Cl)cc23)c1` (racemic), in data set [21], it took 30200 nM to reach half-maximal cytotoxicity (CC50). In addition, the EC50 was 0.2 nM in data set [1]; 4.1 nM in [22]; more than 10000 nM in data set [23]; 9.4 nM in data set [24]; 87 nM in data set [2]; 4.7 nM in data set [25]. Also, the concentration giving a half-maximal response (EC50) in [4] was 1110 nM. Further, the IC50 is 3500 nM in data set [5]; 40 nM in data set [6]; 40 nM in data set [18]; 220 nM in data set [19]; 30 nM in data set [20]; 3550 nM in [26]. For the same compound, in the data set “in vitro”, the selectivity ratio worked out at 151000.

As for `Cc1cc(C)cc(S(=O)(=O)c2c(C(=O)NC(C)c3ccccn3)[nH]c3ccc(Cl)cc23)c1` (racemic), in data set [21], the CC50 turned out to be 54600 nM. Moreover, the concentration giving a half-maximal response (EC50) in [1] is 0.6 nM; in data set [22], 3.2 nM; in data set [23], more than 10000 nM; in data set [24] it was 34 nM; in data set [2], 230 nM; in data set [25] it was 45 nM. Besides, the EC50 in [4] worked out at 6000 nM. Moreover, the IC50 in [18] was determined as 64 nM; in [19] it was 100 nM; in [20], 30 nM; in data set [26], 11100 nM. The selectivity ratio in “in vitro” amounted to 91000.

Turning to `Cc1cc(C)cc(S(=O)(=O)c2c(C(=O)N[C@@H](C)c3ccncc3)[nH]c3ccc(Cl)cc23)c1`, the concentration for a half-maximal effect (EC50) in data set [1] is 0.2 nM; in data set [24], 4.3 nM; in [2] it was 128 nM; in data set [3], 5170 nM; in data set [4] it was 4120 nM; in data set [7], 5.2 nM. The EC50 in [8] was determined as 2 nM; in data set [9], 1.4 nM; in [10], 4.3 nM; in [11], 4.1 nM; in data set [12], 4.9 nM; in data set [13], 3.6 nM. The IC50 was found to be 110000 nM in data set [5]; 55 nM in [6]; 40 nM in data set [18]; 700 nM in data set [19]; 20 nM in [20]. Further, the outcome in [14] was inactive.

These data come from ChEMBL document CHEMBL3351613, “Indolylarylsulfones carrying a heterocyclic tail as very potent and broad spectrum HIV-1 non-nucleoside reverse transcriptase inhibitors” (J Med Chem, 2014).
